Results as given in patent US9243036B2, “Anti-microbial activity of synthetic peptides” (THE UNITED STATES OF AMERICA, as represented by the …, priority 2012, dated 2016).
Residues, ends and D or L forms follow the SMILES beside them.

Experiments:
Assay in all cases: Whole-cell ELISA binding of biotinylated peptide
[1] = system: S. aureus; conditions: EC5 50 μg/ml
Experimental: (§1) ELISA. Log-phase cultures of bacteria were centrifuged at 3,000×g. The cell pellet was resuspended and 10-fold serial dilutions were made in 1×PBS. Bacterial cell suspension at a concentration of 10^3 CFU was coated to the wells of 96-well micro plate (Becton Dickinson, Bedford, Mass.) and incubated overnight at RT. Subsequently, cells were fixed in ethanol (Aldrich Chemical Company, Milwaukee, Wis.) for 10 minutes (min) and the plates were air-dried. Wells were blocked with 5% bovine serum albumin (BSA) (Sigma, St. Louis, Mo.) for 60 min at room temperature (RT), rinsed with PBS and then EC5 peptide suspended in phosphate buffered saline (PBS) at a final concentration of 50 μg/ml were added to all the wells and incubated for 15 min. Following incubation, wells were washed 3 times with PBST buffer (PBS pH 7.4, 0.01% Tween 20). The wells were further incubated with 1:10,000 dilution of streptavidin-HRP conjugate (Upstate, Temecula, Calif.) for 15 min and washed with PBST buffer. Tetramethylbenzidine (TMB) membrane peroxidase substrate (Zymed Laboratories, Carlsbad, Calif.) system was used to detect the enzyme label in accordance with the manufacturer's instructions. The color development in the 96-well plate was recorded by using SYNERGY 4™ BioTek micro plate reader (BioTek Instruments, Winooski, Vt.) at 490 nm wavelength.

[2] = system: S. epidermidis; conditions: EC5 50 μg/ml
Experimental: as §1

[3] = system: B. cereus; conditions: EC5 50 μg/ml
Experimental: as §1

[4] = system: E. coli cells; conditions: EC5 50 μg/ml; p<0.001
Experimental: as §1

[5] = system: P. aeruginosa cells; conditions: EC5 50 μg/ml; p<0.05
Experimental: as §1

[6] = system: K pneumoniae; conditions: EC5 50 μg/ml
Experimental: as §1

## CC[C@H](C)[C@H](NC(=O)[C@H](CCCCN)NC(=O)[C@H](CCCNC(=N)N)NC(=O)[C@H](Cc1ccccc1)NC(=O)[C@H](CC(C)C)NC(=O)[C@H](CC(C)C)NC(=O)[C@@H](N)CCCNC(=N)N)C(=O)N[C@@H](CCCNC(=N)N)C(=O)N[C@@H](CCCNC(=N)N)C(=O)N[C@@H](CC(C)C)C(=O)N[C@@H](CCCCN)C(=O)N[C@@H](CCCNC(=N)N)C(=O)O [EC5, RLLFRKIRRLKR] (H-RLLFRKIRRLKR-OH; N-terminus and C-terminus assumed)
[1]
  binding to S. aureus: did not bind
[2]
  binding to S. epidermidis: did not bind
[3]
  binding to B. cereus: did not bind
[4]
  binding to E. coli cells: significant binding efficiency
[5]
  binding to P. aeruginosa cells: showed binding
[6]
  binding to K pneumoniae: did not bind
